Experimental data: patent US20250144067A1, “PERSONALIZED STARVATION THERAPY FOR CANCER” (Faeth Therapeutics, Inc., priority 2021, published 2025)
Where a name gives a salt, the structure may show the parent alone. Read-outs that look alike come from different tables or passages of the source.

Key:
[1] = system: NCI-H292 lung cancer cells; test: FDA drug screening, complete media vs cholesterol-free media without statin (TABLE 1); assay type: cell-based, human
[2] = system: NCI-H292 lung cancer cells; test: FDA drug screening, complete media vs cholesterol-free media with simvastatin (TABLE 2); assay type: cell-based, human
[3] = NCI-H292 cells, cholesterol-free media without statin, FDA drug library screen
[4] = NCI-H292 cells, complete media, FDA drug library screen
[5] = complete vs cholesterol-free media, >0 enhanced anti-cancer activity, about 0 neutral, <0 antagonist
[6] = NCI-H292 cells, cholesterol-free media with simvastatin 0.04 μM, cell growth value in FDA drug screen
[7] = NCI-H292 cells, complete media, cell growth value in FDA drug screen
[8] = complete media minus cholesterol-free media + simvastatin, >0 enhanced anti-cancer activity, about 0 neutral, <0 antagonist
[9] = Complete minus Cholesterol-free, greater than 0 enhanced anti-cancer activity, about 0 neutral, below 0 antagonist
[10] = NCI-H292 cells, FDA drug library screen, cholesterol-free media without statin
[11] = NCI-H292 cells, FDA drug library screen, complete media
[12] = NCI-H292 cells, FDA library drug in cholesterol-free media with simvastatin 0.04 μM
[13] = NCI-H292 cells, FDA library drug in complete media
[14] = complete media vs cholesterol-free media + simvastatin (0.04 μM), >0 enhanced anti-cancer activity, about 0 neutral, <0 antagonist
[15] = NCI-H292 cells, cholesterol-free media without statin
[16] = complete vs cholesterol-free media, greater than 0 enhanced anti-cancer activity, about 0 neutral, below 0 antagonists
[17] = NCI-H292 cells, cholesterol-free media with simvastatin 0.04 μM, FDA drug library screen (TABLE 2)
[18] = NCI-H292 cells, complete media, FDA drug library screen (TABLE 2)
[19] = complete media minus cholesterol-free media + simvastatin (0.04 μM), >0 enhanced anti-cancer activity, about 0 neutral, <0 antagonist
[20] = Complete minus Cholesterol-free, […]
[21] = complete media minus cholesterol-free media + simvastatin, […]
[22] = NCI-H292 cells, FDA drug library screen, cholesterol-free media with simvastatin 0.04 μM
[23] = NCI-H292 cells, drug in cholesterol-free media with simvastatin 0.04 μM
[24] = NCI-H292 cells, drug in complete media
[25] = Complete minus Cholesterol-free, >0 enhanced anti-cancer activity, about 0 neutral, <0 antagonist
[26] = Complete minus Cholesterol-free, greater than 0 enhanced anti-cancer activity, about 0 neutral, below 0 antagonists
[27] = NCI-H292 cells in cholesterol-free media without statin
[28] = NCI-H292 cells in complete media

Molecule: COCC1=C(C(=O)OC(C)OC(=O)OC(C)C)N2C(=O)[C@@H](NC(=O)/C(=N\OC)c3csc(N)n3)[C@H]2SC1 (stereo partly shown) [Cefpodoxime Proxetil]
- Cholesterol-free [1, 3]: 1.085
- Complete [1, 4]: 1.311
- Difference [1, 5]: 0.23
- Cholesterol-free media + simvastatin (0.04 μM) [2, 6]: 1.112
- Complete Media [2, 7]: 1.162
- Difference [2, 8]: 0.05

Molecule: Cc1nc2n(c(=O)c1CCN1CCC(c3noc4cc(F)ccc34)CC1)CCCC2O (stereo not shown) [Paliperidone]
- Difference [1, 9]: −0.18
- Cholesterol-free [1, 10]: 0.8391
- Complete [1, 11]: 0.6569
- Cholesterol-free media + simvastatin (0.04 μM) [2, 12]: 1.086
- Complete Media [2, 13]: 0.8023
- Difference [2, 14]: −0.28

Molecule: Nc1nc2c(ncn2CCC(CO)CO)c(=O)[nH]1 [Penciclovir]
- Cholesterol-free [1, 15]: 0.9605
- Complete ([1]; NCI-H292 cells, complete media): 0.6394
- Difference [1, 16]: −0.32
- Cholesterol-free media + simvastatin (0.04 μM) [2, 17]: 1.351
- Complete Media [2, 18]: 1.353
- Difference [2, 19]: 0.00

Molecule: C[N+](C)(CC(=O)Nc1ccccc1)CC(=O)Nc1ccccc1.[Cl-] [Carcainium (chloride)]
- Difference [1, 20]: 0.01
- Cholesterol-free [1, 3]: 0.9985
- Complete [1, 4]: 1.004
- Cholesterol-free media + simvastatin (0.04 μM) ([2]; NCI-H292 cells, cholesterol-free media with simvastatin 0.04 μM, […]): 1.019
- Complete Media ([2]; NCI-H292 cells, complete media, […]): 1.155
- Difference [2, 21]: 0.14

Molecule: O=C1O[C@H](CO)[C@@H](O)[C@H](O)[C@H]1O [D-(+)-Glucono-1,5-lactone]
- Cholesterol-free [1, 15]: 1.227
- Complete ([1]; NCI-H292 cells, complete media): 0.906
- Difference [1, 16]: −0.32
- Cholesterol-free media + simvastatin (0.04 μM) [2, 22]: 1.196
- Complete Media [2, 11]: 1.644
- Difference [2, 8]: 0.45

Molecule: CC(=O)Oc1cc2c(s1)CCN(C(C(=O)C1CC1)c1ccccc1F)C2 (stereo not shown) [Prasugrel]
- Cholesterol-free [1, 3]: 1.483
- Complete [1, 4]: 1.769
- Difference [1, 5]: 0.29
- Cholesterol-free media + simvastatin (0.04 μM) [2, 22]: 1.012
- Complete Media [2, 11]: 0.9091
- Difference [2, 14]: −0.10

Molecule: OC(CCN1CCCC1)(c1ccccc1)C1CCCCC1 (stereo not shown) [Procyclidine (hydrochloride)]
- Cholesterol-free [1, 15]: 1.459
- Complete ([1]; NCI-H292 cells, complete media): 0.997
- Difference [1, 16]: −0.46
- Cholesterol-free media + simvastatin (0.04 μM) [2, 23]: 1.237
- Complete Media [2, 24]: 1.076
- Difference [2, 14]: −0.16

Molecule: Nc1ccc(C(=O)O)c(O)c1 [4-Aminosalicylic acid]
- Difference [1, 20]: −0.16
- Cholesterol-free [1, 10]: 1.094
- Complete [1, 11]: 0.9375
- Cholesterol-free media + simvastatin (0.04 μM) [2, 22]: 1.199
- Complete Media [2, 11]: 1.112
- Difference ([2]; complete media vs cholesterol-free media + simvastatin (0.04 μM), […]): −0.09

Molecule: Fesoterodine (fumarate)
- Difference [1, 20]: −0.24
- Cholesterol-free [1, 15]: 1.247
- Complete ([1]; NCI-H292 cells, complete media): 1.003
- Cholesterol-free media + simvastatin (0.04 μM) [2, 22]: 0.9771
- Complete Media [2, 11]: 1.278
- Difference [2, 21]: 0.30

Molecule: N#Cc1ccc(C2CCCc3cncn32)cc1 (stereo not shown) [Fadrozole hydrochloride]
- Cholesterol-free [1]: 1.643
- Complete [1]: 1.101
- Difference [1]: −0.54
- Cholesterol-free media + simvastatin (0.04 μM) [2]: 0.9854
- Complete Media [2]: 0.9477
- Difference [2]: −0.04

Molecule: C=CC(=O)N1CCC([C@@H]2CCNc3c(C(N)=O)c(-c4ccc(Oc5ccccc5)cc4)nn32)CC1 [Zanubrutinib]
- Cholesterol-free [1, 15]: 0.7894
- Complete ([1]; NCI-H292 cells, complete media): 0.3496
- Difference [1, 16]: −0.44
- Cholesterol-free media + simvastatin (0.04 μM) [2, 17]: 0.7245
- Complete Media [2, 18]: 0.7031
- Difference [2, 19]: −0.02

Molecule: Nc1ccn([C@@H]2O[C@H](CO)[C@@H](O)[C@H]2O)c(=O)n1 [Cytidine]
- Difference [1, 25]: −0.23
- Cholesterol-free [1, 15]: 1.318
- Complete ([1]; NCI-H292 cells, complete media): 1.09
- Cholesterol-free media + simvastatin (0.04 μM) [2, 23]: 1.411
- Complete Media [2, 24]: 1.221
- Difference [2, 14]: −0.19

Molecule: NC1=NCC2c3ccccc3Cc3ccccc3N12 (stereo not shown) [Epinastine]
- Cholesterol-free [1]: 0.9643
- Complete [1]: 0.9792
- Difference [1]: 0.01
- Cholesterol-free media + simvastatin (0.04 μM) [2]: 0.9831
- Complete Media [2]: 0.9656
- Difference [2]: −0.02

Molecule: Clc1ccc(Cn2c(CN3CCCC3)nc3ccccc32)cc1 [Clemizole (hydrochloride)]
- Difference [1, 9]: −0.11
- Cholesterol-free [1, 10]: 1.125
- Complete [1, 11]: 1.013
- Cholesterol-free media + simvastatin (0.04 μM) [2, 6]: 0.9553
- Complete Media [2, 7]: 1.07
- Difference [2, 8]: 0.11

Molecule: CCCNS(=O)(=O)Nc1ncnc(OCCOc2ncc(Br)cn2)c1-c1ccc(Br)cc1 [Macitentan]
- Difference [1, 26]: −0.48
- Cholesterol-free [1, 27]: 1.592
- Complete [1, 28]: 1.113
- Cholesterol-free media + simvastatin (0.04 μM) [2, 22]: 1.697
- Complete Media [2, 11]: 1.56
- Difference [2, 14]: −0.14

Molecule: Oc1c(I)cc(I)c2cccnc12 [Diiodohydroxyquinoline]
- Difference [1, 25]: −0.27
- Cholesterol-free [1, 15]: 1.098
- Complete ([1]; NCI-H292 cells, complete media): 0.8284
- Cholesterol-free media + simvastatin (0.04 μM) [2, 22]: 0.94
- Complete Media [2, 11]: 1.35
- Difference [2, 8]: 0.41

Molecule: CC1=C(CC(=O)O)c2cc(F)ccc2/C1=C\c1ccc([S+](C)[O-])cc1 (stereo not shown) [Sulindac]
- Difference [1, 26]: −0.48
- Cholesterol-free [1, 27]: 1.336
- Complete [1, 28]: 0.8519
- Cholesterol-free media + simvastatin (0.04 μM) [2, 17]: 1.193
- Difference [2, 19]: −0.02

Molecule: Cc1ccc(O)c([C@H](CCN(C(C)C)C(C)C)c2ccccc2)c1 [Tolterodine]
- Cholesterol-free [1]: 0.9758
- Complete [1]: 1.051
- Difference [1]: 0.08
- Cholesterol-free media + simvastatin (0.04 μM) [2]: 1.169
- Complete Media [2]: 0.8561
- Difference [2]: −0.31

Molecule: CC[C@]12CCCN3CCc4c(n(c5ccccc45)[C@@](O)(C(=O)OC)C1)[C@@H]32 [Vincamine]
- Cholesterol-free [1, 3]: 0.6922
- Complete [1, 4]: 1.178
- Difference [1, 5]: 0.49
- Cholesterol-free media + simvastatin (0.04 μM) [2, 17]: 0.8199
- Complete Media [2, 18]: 0.7686
- Difference [2, 19]: −0.05

Molecule: Pyrantel (tartrate)
- Difference [1, 9]: −0.17
- Complete [1, 11]: 0.9815
- Cholesterol-free media + simvastatin (0.04 μM) [2, 12]: 1.712
- Complete Media [2, 13]: 1.209
- Difference [2, 14]: −0.50

Molecule: Cn1c(Cn2ccc(C(F)(F)F)c(Oc3cc(Cl)cc(C#N)c3)c2=O)n[nH]c1=O [Doravirine]
- Difference [1, 25]: 0.06
- Cholesterol-free [1, 3]: 0.8163
- Complete [1, 4]: 0.8734
- Cholesterol-free media + simvastatin (0.04 μM) [2, 22]: 1.425
- Complete Media [2, 11]: 1.562
- Difference [2, 8]: 0.14

Molecule: COc1ccccc1OCC(O)COC(N)=O (stereo not shown) [Methocarbamol]
- Difference [1, 25]: −0.29
- Cholesterol-free [1, 15]: 1.357
- Complete ([1]; NCI-H292 cells, complete media): 1.063
- Cholesterol-free media + simvastatin (0.04 μM) [2, 12]: 1.33
- Complete Media [2, 13]: 0.8727
- Difference [2, 14]: −0.46

Molecule: O.O.O=C([O-])CC(O)(CC(=O)[O-])C(=O)[O-].[Na+].[Na+].[Na+] [Sodium citrate (dihydrate)]
- Cholesterol-free [1]: 0.7144
- Complete [1]: 0.9967
- Difference [1]: 0.28
- Cholesterol-free media + simvastatin (0.04 μM) [2]: 1.04
- Complete Media [2]: 1.108
- Difference [2]: 0.07

Molecule: CN(C)CCOC(=O)COc1ccc(Cl)cc1 [Meclofenoxate (hydrochloride)]
- Difference [1, 20]: −0.28
- Cholesterol-free [1, 15]: 1.499
- Complete ([1]; NCI-H292 cells, complete media): 1.221
- Cholesterol-free media + simvastatin (0.04 μM) [2, 17]: 1.001
- Complete Media [2, 18]: 0.9764
- Difference ([2]; complete media minus cholesterol-free media + simvastatin (0.04 μM), […]): −0.02

Molecule: CC(=O)OCC(=O)[C@@]1(O)[C@H](C)C[C@H]2[C@@H]3CCC4=CC(=O)C=C[C@]4(C)[C@@]3(F)[C@@H](O)C[C@@]21C [Dexamethasone acetate]
- Difference [1, 25]: −0.04
- Cholesterol-free [1, 3]: 0.6815
- Complete [1, 4]: 0.6403
- Cholesterol-free media + simvastatin (0.04 μM) [2, 22]: 0.9553
- Complete Media [2, 11]: 0.8728
- Difference [2, 14]: −0.08

Molecule: CC(Cc1cccc(C(F)(F)F)c1)NCCOC(=O)c1ccccc1 (stereo not shown) [Benfluorex (hydrochloride)]
- Cholesterol-free [1, 15]: 1.106
- Complete ([1]; NCI-H292 cells, complete media): 0.6694
- Difference [1, 16]: −0.44
- Cholesterol-free media + simvastatin (0.04 μM) [2, 23]: 1.041
- Complete Media [2, 24]: 0.8151
- Difference [2, 14]: −0.23

Molecule: COc1ccc(C(=O)NCc2ccc(OCCN(C)C)cc2)cc1OC [Itopride (hydrochloride)]
- Difference [1, 25]: −0.04
- Cholesterol-free [1, 3]: 1.141
- Complete [1, 4]: 1.104
- Cholesterol-free media + simvastatin (0.04 μM) [2, 12]: 1.711
- Complete Media [2, 13]: 1.056
- Difference [2, 14]: −0.65

Molecule: CCCN(CCC)C(=O)C(CCC(=O)O)NC(=O)c1ccccc1 (stereo not shown) [Proglumide]
- Cholesterol-free [1, 3]: 0.7154
- Complete [1, 4]: 1.407
- Difference [1, 5]: 0.69
- Cholesterol-free media + simvastatin (0.04 μM) [2, 17]: 0.8053
- Complete Media [2, 18]: 0.7842
- Difference [2, 19]: −0.02

Molecule: Nafamostat (mesylate)
- Cholesterol-free [1, 15]: 1.215
- Complete ([1]; NCI-H292 cells, complete media): 0.8839
- Difference [1, 16]: −0.33
- Cholesterol-free media + simvastatin (0.04 μM) [2, 23]: 1.2
- Complete Media [2, 24]: 0.9501
- Difference [2, 14]: −0.25
